Test [1] deals with T1, Recombinant STAT6 protein (STAT6(W123-T658)) (Homo sapiens, UniProt P42226).
T1 construct: Recombinant STAT6 protein (STAT6(W123-T658))
T1 sequence (P42226 123-658): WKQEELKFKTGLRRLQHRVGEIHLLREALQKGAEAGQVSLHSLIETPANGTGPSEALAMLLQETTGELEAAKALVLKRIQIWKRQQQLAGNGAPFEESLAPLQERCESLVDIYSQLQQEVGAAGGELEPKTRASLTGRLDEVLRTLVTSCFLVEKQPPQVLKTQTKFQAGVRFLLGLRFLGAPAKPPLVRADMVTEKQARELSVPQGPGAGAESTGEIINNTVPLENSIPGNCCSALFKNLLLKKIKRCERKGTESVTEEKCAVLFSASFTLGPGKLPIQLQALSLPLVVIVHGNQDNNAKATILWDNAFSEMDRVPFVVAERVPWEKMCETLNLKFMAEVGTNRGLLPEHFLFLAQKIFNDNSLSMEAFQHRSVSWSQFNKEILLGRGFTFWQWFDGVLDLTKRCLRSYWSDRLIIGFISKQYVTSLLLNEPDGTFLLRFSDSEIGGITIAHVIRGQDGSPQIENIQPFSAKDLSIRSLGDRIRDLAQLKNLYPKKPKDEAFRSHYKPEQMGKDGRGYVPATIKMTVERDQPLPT
Description: STAT6 Fluorescence Polarization (FP) Assay. The settings on record: STAT6(W123-T658) 250 nM, probe 5-FAM-ApYKPFQDLI-NH2 2 nM, 45-minute incubation. The format is binding. Put shortly: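 Displacement of a fluorescent phosphotyrosine peptide (5-FAM-ApYKPFQDLI-NH2, 2 nM) from STAT6(W123-T658) (250 nM), 1% DMSO, pH 7.4 HEPES buffer. After 45 min at room temperature, polarization (mP) was plotted versus log compound concentration and fitted by nonlinear regression to give IC50.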

Test [2] addresses T2, Recombinant STAT3 protein (STAT3(G127-I722)) (Homo sapiens, UniProt P40763).
T2 construct: Recombinant STAT3 protein (STAT3(G127-I722))
Description: STAT3 Fluorescence Polarization (FP) Assay. The settings on record: STAT3(G127-I722) 25 nM, probe 5-FAM-GpYLPQTV-NH2 2 nM, 45-minute incubation. It counts as binding. Put shortly:
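Fluorescence polarization after a 45-min room-temperature incubation measured compound displacement of a 2 nM fluorescein-labelled phosphotyrosine peptide (5-FAM-GpYLPQTV-NH2) from 25 nM recombinant STAT3(G127-I722). Buffer was 10 mM HEPES pH 7.4 with 1% DMSO final. IC50s were fitted by nonlinear regression of mP against log concentration.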
(In general: Fluorescence polarisation rises when a labelled molecule tumbles more slowly, as on binding a larger partner.)

T2 sequence (P40763 127-722): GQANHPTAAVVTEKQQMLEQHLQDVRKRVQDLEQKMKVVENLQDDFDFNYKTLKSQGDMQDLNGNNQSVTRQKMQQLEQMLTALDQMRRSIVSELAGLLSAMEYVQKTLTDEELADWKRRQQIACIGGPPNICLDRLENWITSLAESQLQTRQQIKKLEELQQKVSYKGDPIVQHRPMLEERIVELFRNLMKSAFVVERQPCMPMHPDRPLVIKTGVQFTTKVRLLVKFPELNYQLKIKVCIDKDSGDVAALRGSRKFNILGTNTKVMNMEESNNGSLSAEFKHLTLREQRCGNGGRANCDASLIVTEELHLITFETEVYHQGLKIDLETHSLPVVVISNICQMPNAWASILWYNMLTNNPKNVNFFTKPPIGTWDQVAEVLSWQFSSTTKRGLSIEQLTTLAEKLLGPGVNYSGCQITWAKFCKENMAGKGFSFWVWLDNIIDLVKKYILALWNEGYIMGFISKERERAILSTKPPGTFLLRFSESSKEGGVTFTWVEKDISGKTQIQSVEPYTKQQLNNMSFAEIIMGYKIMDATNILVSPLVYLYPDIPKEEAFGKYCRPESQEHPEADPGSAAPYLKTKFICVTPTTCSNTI

`CC(=O)N1CC[C@H]2CC[C@@H](C(=O)Nc3ccc(-c4ccccc4)cc3)N2C(=O)[C@@H](NC(=O)c2cc3cc(C(F)(F)P(=O)(O)O)c(F)cc3s2)C1` [Compound 46, ((2-(((5S,8S,10aR)-8-([1,1′-biphenyl]-4-ylcarbamoyl)-3-acetyl-6-oxodecahydropyrrolo[1,2-a][1,5]diazocin-5-yl)carbamoyl)-6-fluorobenzo[b]thiophen-5-yl)difluoromethyl)phosphonic acid]: the IC50 lay in the range of 300 to 3000 nM in test [1] and 1 to 10 µM in test [2].

For `CC(=O)N1CC[C@H]2CC[C@@H](C(=O)N(C)c3ccc(C(C)(C)c4ccccc4)cc3)N2C(=O)[C@@H](NC(=O)c2cc3cc(C(F)(F)P(=O)(O)O)ccc3s2)C1` [Compound 155, ((2-(((5S,8S,10aR)-3-acetyl-8-(methyl(4-(2-phenylpropan-2-yl)phenyl)carbamoyl)-6-oxodecahydropyrrolo[1,2-a][1,5]diazocin-5-yl)carbamoyl)benzo[b]thiophen-5-yl)difluoromethyl)phosphonic acid], the half-inhibitory concentration (IC50) in test [1] fell in the range of 300 to 3000 nM; in test [2], 1 to 10 µM.

As for `O=C(N[C@H]1CN(C(=O)c2ncn3c2CCCC3)CC[C@H]2CC[C@@H](C(=O)N3CCOCC3)N2C1=O)c1ccc2ccc(C(F)P(=O)(O)O)cc2c1` (stereo partly drawn) [Compound 364, (fluoro(7-(((5S,8S,10aR)-8-(morpholine-4-carbonyl)-6-oxo-3-(5,6,7,8-tetrahydroimidazo[1,5-a]pyridine-1-carbonyl)decahydropyrrolo[1,2-a][1,5]diazocin-5-yl)carbamoyl)naphthalen-2-yl)methyl)phosphonic acid], the IC50 in test [1] is 300 to 3000 nM; in test [2], greater than 10 µM.

Turning to `CC(=O)N1CC[C@H]2CC[C@@H](C(=O)N(C)c3ccc(Cl)c(Cl)c3)N2C(=O)[C@@H](NC(=O)c2cc3cc(C(F)(F)P(=O)(O)O)ccc3s2)C1` [Compound 188, ((2-(((5S,8S,10aR)-3-acetyl-8-((3,4-dichlorophenyl)(methyl)carbamoyl)-6-oxodecahydropyrrolo[1,2-a][1,5]diazocin-5-yl)carbamoyl)benzo[b]thiophen-5-yl)difluoromethyl)phosphonic acid], the 50% inhibitory concentration (IC50) is 300 to 3000 nM in test [1] and 1 to 10 µM in test [2].

Consider `CC(=O)N1CC[C@H]2CC[C@@H](C(=O)N(C)c3ccc(OC(F)(F)F)cc3)N2C(=O)[C@@H](NC(=O)c2cc3cc(C(F)(F)P(=O)(O)O)ccc3[nH]2)C1` [Compound 135, ((2-(((5S,8S,10aR)-3-acetyl-8-(methyl(4-(trifluoromethoxy)phenyl)carbamoyl)-6-oxodecahydropyrrolo[1,2-a][1,5]diazocin-5-yl)carbamoyl)-1H-indol-5-yl)difluoromethyl)phosphonic acid], for which the half-maximal inhibitory concentration (IC50) lay in the range of 300 to 3000 nM in test [1] and 1 to 10 µM in test [2].

In the case of `CC(=O)N1CC[C@H]2CC[C@@H](C(=O)N3C[C@H](C#N)[C@@]4(C3)C(=O)Nc3ccccc34)N2C(=O)[C@@H](NC(=O)c2cc3cc(C(F)(F)P(=O)(O)O)ccc3s2)C1` (single isomer, unassigned) [Compound 13, ((2-(((5S,8S,10aR)-3-acetyl-8-((3R,4′R or 3S,4′S)-4′-cyano-2-oxospiro[indoline-3,3′-pyrrolidine]-1′-carbonyl)-6-oxodecahydropyrrolo[1,2-a][1,5]diazocin-5-yl)carbamoyl)benzo[b]thiophen-5-yl)difluoromethyl)phosphonic acid], the results for the half-maximal inhibitory concentration (IC50) in test [1] and in test [2] were 300 to 3000 nM and 1 to 10 µM, respectively.

`CNC(=O)Cc1cc(-c2ccccc2)ccc1NC(=O)[C@@H]1CC[C@@H]2CCN(C(C)=O)C[C@H](NC(=O)c3cc4cc(C(F)(F)P(=O)(O)O)ccc4s3)C(=O)N21` [Compound 198, ((2-(((5S,8S,10aR)-3-acetyl-8-((3-(2-(methylamino)-2-oxoethyl)-[1,1′-biphenyl]-4-yl)carbamoyl)-6-oxodecahydrpyrrolo[1,2-a][1,5]diazocin-5-yl)carbamoyl)benzo[b]thiophen-5-yl)difluoromethyl)phosphonic acid]: the half-maximal inhibitory concentration (IC50) was in the range of 300 to 3000 nM in test [1] and 0.1 to 1 µM in test [2].

Consider `Cc1ccc2onc(C(=O)N3CC[C@H]4CC[C@@H](C(=O)N5C(=O)N(c6cccnc6)C(=O)C56CC6)N4C(=O)[C@@H](NC(=O)c4ccc5ccc([C@H](F)P(=O)(O)O)cc5c4)C3)c2c1` [Compound 386, ((R)-(7-(((5S,8S, 10aR)-8-(5,7-dioxo-6-(pyridin-3-yl)-4,6-diazaspiro[2.4]heptane-4-carbonyl)-3-(5-methylbenzo[d]isoxazole-3-carbonyl)-6-oxodecahydropyrrolo [1,2-a][1,5]diazocin-5-yl)carbamoyl)naphthalen-2-yl)fluoromethyl)phosphonic acid], for which the IC50 in test [1] was no more than 300 nM; in test [2] it was greater than 10 µM.

As to `Cc1ccc2onc(C(=O)N3CC[C@H]4CC[C@@H](C(=O)N5C[C@@H](c6ccn(C)c(=O)c6)CC56CC6)N4C(=O)[C@@H](NC(=O)c4ccc5ccc([C@@H](F)P(=O)(O)O)cc5c4)C3)c2c1` [Compound 380, ((S)-fluoro(7-(((5S,8S, 10aR)-8-((R)-6-(1-methyl-2-oxo-1,2-dihydropyridin-4-yl)-4-azaspiro[2.4]heptane-4-carbonyl)-3-(5-methylbenzo[d]isoxazole-3-carbonyl)-6-oxodecahydropyrrolo [1,2-a][1,5]diazocin-5-yl)carbamoyl)naphthalen-2-yl)methyl)phosphonic acid], the concentration for half-maximal inhibition (IC50) was no more than 300 nM in test [1] and greater than 10 µM in test [2].

On to `CC(=O)N1CC[C@H]2CC[C@@H](C(=O)N(C)c3ccccc3C#N)N2C(=O)[C@@H](NC(=O)c2cc3cc(C(F)(F)P(=O)(O)O)ccc3[nH]2)C1` [Compound 108, ((2-(((5S,8S,10aR)-3-acetyl-8-((2-cyanophenyl)(methyl)carbamoyl)-6-oxodecahydropyrrolo[1,2-a][1,5]diazocin-5-yl)carbamoyl)-1H-indol-5-yl)difluoromethyl)phosphonic acid], for which the half-inhibitory concentration (IC50) in test [1] is 300 to 3000 nM; in test [2] it was 1 to 10 µM.

For `Cc1ccc2cc(C(=O)N3CC[C@H]4CC[C@@H](C(=O)N5CCOCC5)N4C(=O)[C@@H](NC(=O)c4ccc5ccc(C(F)P(=O)(O)O)cc5c4)C3)cc(Cl)c2n1` (stereo partly drawn) [Compound 366, ((7-(((5S,8S,10aR)-3-(8-chloro-2-methyl-quinoline-6-carbonyl)-8-(morpholine-4-carbonyl)-6-oxodecahydropyrrolo [1,2-a][1,5]diazocin-5-yl)carbamoyl)naphthalen-2-yl)fluoromethyl) phosphonic acid], the IC50 is 300 to 3000 nM in test [1] and greater than 10 µM in test [2].

With `O=C(N[C@H]1CCNC[C@H]2CC[C@@H](C(=O)N3CC(c4cccnc4)C3)N2C1=O)c1cc2cc(C(F)(F)P(=O)(O)O)ccc2s1` [Compound 212, (difluoro(2-(((5S,8S,10aR)-6-oxo-8-(3-(pyridin-3-yl)azetidine-1-carbonyl)decahydropyrrolo[1,2-a][1,4]diazocin-5-yl)carbamoyl)benzo[b]thiophen-5-yl)methyl)phosphonic acid], the IC50 fell in the range of 3000 to 30000 nM in test [1] and 1 to 10 µM in test [2].

For `Cc1ccc2onc(C(=O)N3CC[C@H]4CC[C@@H](C(=O)N5C[C@@H](C)O[C@@H](C)C5)N4C(=O)[C@@H](NC(=O)c4ccc5ccc(C(F)P(=O)(O)O)cc5c4)C3)c2c1` (stereo partly drawn) [Compound 397, ((7-(((5S,8S,10aR)-8-((2S,6R)-2,6-dimethylmorpholine-4-carbonyl)-3-(5-methylbenzo[d]isoxazole-3-carbonyl)-6-oxodecahydropyrrolo [1,2-a][1,5]diazocin-5-yl)carbamoyl)naphthalen-2-yl)fluoromethyl)phosphonic acid], the IC50 in test [1] is no more than 300 nM; in test [2], greater than 10 µM.

As for `CC(=O)N1CC[C@H]2CC[C@@H](C(=O)N3C[C@@H](C#N)[C@H](c4ccccc4)C3)N2C(=O)[C@@H](NC(=O)c2cc3cc(C(F)(F)P(=O)(O)O)ccc3[nH]2)C1` (single isomer, unassigned) [Compound 139, ((2-(((5S,8S,10aR)-3-acetyl-8-((3S,4R or 3R,4S)-3-cyano-4-phenylpyrrolidine-1-carbonyl)-6-oxodecahydropyrrolo[1,2-a][1,5]diazocin-5-yl)carbamoyl)-1H-indol-5-yl)difluoromethyl)phosphonic acid], the IC50 in test [1] is no more than 300 nM; in test [2], 1 to 10 µM.

In general, IC50 refers to the concentration at which inhibition is half-maximal.

These data come from patent US20250179103A1, “6-OXODECAHYDROPYRROLO[1,2-A][1,5]DIAZOCINE AND 6-OXODECAHYDRO-4H-PYRROLO[2,1-D][1,5]THIAZOCINE DERIVATIVES AS STAT3 AND STAT6 MODULATORS FOR THE TREATMENT OF CANCER AND INFLAMMATORY CONDITIONS” (Recludix Pharma, Inc., priority 2022, published 2025).
